Test results published in patent US4200631A, “Treating mammalian subject sensitive to indomethacin ulcerogenisis” (priority 1978, dated 1980).

Conditions: rat, in vivo, po

Compound: COc1ccc2c(c1)c(CC(=O)O)c(C)n2C(=O)c1ccc(Cl)cc1 [Indomethacin]
- Therapeutical index LD50/ED50 (B): 8.9
